Results published in patent publication US8530667B2, “Herbicides” (Syngenta Limited, priority 2007, dated 2013).

How the values were obtained:
Format in all cases: in vivo
[1] = tested on: Alopecurus myosuroides (ALOMY); experiment: Example B pre-emergence herbicidal activity, glasshouse pot test; conditions: 312 h, Rate 250 g/ha, evaluated after 13 days, read-out: Pre-Emergence Activity ALOMY (100=total damage to plant; 0=no damage to plant)
Description: (§1) Seeds of a variety of test species were sown in standard soil in pots. After cultivation for one day (pre-emergence) or after 8 days cultivation (post-emergence) under controlled conditions in a glasshouse (at 24/16° C., day/night; 14 hours light; 65% humidity), the plants were sprayed with an aqueous spray solution derived from the formulation of the technical active ingredient in acetone/water (50:50) solution containing 0.5% Tween 20 (polyoxyethelyene sorbitan monolaurate, CAS RN 9005-64-5). The test plants were then grown in a glasshouse under controlled conditions in a glasshouse (at 24/16° C., day/night; 14 hours light; 65% humidity) and watered twice daily. After 13 days for pre and post-emergence, the test was evaluated (100=total damage to plant; 0=no damage to plant). Alopecurus myosuroides (ALOMY), Avena fatua (AVEFA), Setaria faberi (SETFA), Echinochloa crus-galli (ECHCG) and Amaranthus retoflexus (AMARE)

[2] = tested on: Amaranthus retoflexus (AMARE); experiment: as above; conditions: Amaranthus retroflexus, 312 h, Rate 250 g/ha, evaluated after 13 days, read-out: Pre-Emergence Activity AMARE (100=total damage to plant; 0=no damage to plant)
Description: as §1

[3] = tested on: Echinochloa crus-galli (ECHCG); experiment: as above; conditions: 312 h, Rate 250 g/ha, evaluated after 13 days, read-out: Pre-Emergence Activity ECHCG (100=total damage to plant; 0=no damage to plant)
Description: as §1

[4] = tested on: Avena fatua (AVEFA); experiment: as above; conditions: 312 h, Rate 250 g/ha, evaluated after 13 days, read-out: Pre-Emergence Activity AVEFA (100=total damage to plant; 0=no damage to plant)
Description: as §1

[5] = tested on: Setaria faberi (SETFA); experiment: as above; conditions: 312 h, Rate 250 g/ha, evaluated after 13 days, read-out: Pre-Emergence Activity SETFA (100=total damage to plant; 0=no damage to plant)
Description: as §1

[6] = tested on: Alopecurus myosuroides (ALOMY); experiment: Example B post-emergence herbicidal activity, glasshouse pot test; conditions: 312 h, rate 250 g/ha, evaluated after 13 days, read-out: Post-emergence activity ALOMY (100=total damage to plant; 0=no damage to plant)
Description: as §1

[7] = tested on: Amaranthus retoflexus (AMARE); experiment: as above; conditions: Amaranthus retroflexus, 312 h, rate 250 g/ha, evaluated after 13 days, read-out: Post-emergence activity AMARE (100=total damage to plant; 0=no damage to plant)
Description: as §1

[8] = tested on: Echinochloa crus-galli (ECHCG); experiment: as above; conditions: 312 h, rate 250 g/ha, evaluated after 13 days, read-out: Post-emergence activity ECHCG (100=total damage to plant; 0=no damage to plant)
Description: as §1

[9] = tested on: Avena fatua (AVEFA); experiment: as above; conditions: 312 h, rate 250 g/ha, evaluated after 13 days, read-out: Post-emergence activity AVEFA (100=total damage to plant; 0=no damage to plant)
Description: as §1

[10] = tested on: Setaria faberi (SETFA); experiment: as above; conditions: 312 h, rate 250 g/ha, evaluated after 13 days, read-out: Post-emergence activity SETFA (100=total damage to plant; 0=no damage to plant)
Description: as §1

Row | Structure (SMILES) | pest or weed control at 250 g/ha [1] [%] | pest or weed control at 250 g/ha [2] [%] | pest or weed control at 250 g/ha [3] [%] | pest or weed control at 250 g/ha [4] [%] | pest or weed control at 250 g/ha [5] [%] | pest or weed control at 250 g/ha [6] [%] | pest or weed control at 250 g/ha [7] [%] | pest or weed control at 250 g/ha [8] [%] | pest or weed control at 250 g/ha [9] [%] | pest or weed control at 250 g/ha [10] [%]
1 | Cc1sc(-c2ccc(Br)cn2)nc1C1C(=O)[C@@H]2[C@H](C1=O)[C@H]1CC[C@@H]2O1 (some centres unmarked) [Compound T38] | 0 | 0 | 40 | 0 | 90 | 90 | 0 | 100 | 90 | 100
2 | CCc1sc(-c2ccc(Br)cn2)nc1C1C(=O)[C@@H]2[C@H](C1=O)[C@H]1CC[C@@H]2O1 (some centres unmarked) [Compound T43] | 0 | 0 | 80 | 0 | 60 | 90 | 0 | 100 | 100 | 100
3 | Cc1cc(Br)ccc1-c1nc(C2=C(OC(=O)C(C)(C)C)[C@@H]3[C@H](C2=O)[C@H]2CC[C@@H]3O2)c(C)s1 (racemic) [Compound P7] | 100 | 0 | 100 | 100 | 100 | 100 | 0 | 100 | 100 | 100
4 | CCc1sc(-c2cc(F)c(Cl)cc2Cl)nc1C1C(=O)[C@@H]2[C@H](C1=O)[C@H]1CC[C@@H]2O1 (some centres unmarked) [Compound T47] | 90 | 0 | 90 | 80 | 100 | 100 | 0 | 100 | 100 | 100
5 | CC(=O)OC1=C(c2nc(-c3ccc(OC(F)F)cc3F)sc2C)C(=O)[C@H]2[C@@H]1[C@@H]1CC[C@H]2O1 (racemic) [Compound P10] | 90 | 0 | 100 | 100 | 100 | 100 | 20 | 100 | 100 | 100
6 | Cc1sc(-c2cccs2)nc1C1C(=O)[C@@H]2[C@H](C1=O)[C@H]1CC[C@@H]2O1 (some centres unmarked) [Compound T32] | 0 | 0 | 0 | 0 | 40 | 0 | 0 | 30 | 0 | 70
7 | CCc1sc(-c2ccc(Cl)cc2Cl)nc1C1C(=O)[C@@H]2[C@H](C1=O)[C@H]1CC[C@@H]2O1 (some centres unmarked) [Compound T45] | 90 | 0 | 100 | 60 | 100 | 100 | 0 | 100 | 100 | 100
8 | Cc1sc(-c2ccc(Br)cc2F)nc1C1C(=O)[C@@H]2[C@H](C1=O)[C@H]1CC[C@@H]2O1 (some centres unmarked) [Compound T36] | 90 | 0 | 100 | 80 | 100 | 100 | 30 | 100 | 100 | 100
